Data taken from patent US12110279B2, “Triazolones, tetrazolones, and imidazolones, or their salts, and pharmaceutical compositions comprising the same” (Yuhan Corporation, priority 2021, dated 2024).
Structures can show the parent of a compound that is named as a salt. Where two headings read alike, the source gives them in different places.

Tests used:
Assay type in all cases: biochemical
[1] = target: T1, recombinant human MAO-A (monoamine oxidase-A) (Homo sapiens, UniProt P21397); experiment: Amplex Red HRP-coupled amine oxidase activity evaluation, recombinant human MAO-A; settings: substrate 0.5 mM tyramine; read-out: Inhibitory Activity (IC50, nM) MAO-A
T1 construct: purchased Sigma-Aldrich
T1 sequence (P21397 1-527): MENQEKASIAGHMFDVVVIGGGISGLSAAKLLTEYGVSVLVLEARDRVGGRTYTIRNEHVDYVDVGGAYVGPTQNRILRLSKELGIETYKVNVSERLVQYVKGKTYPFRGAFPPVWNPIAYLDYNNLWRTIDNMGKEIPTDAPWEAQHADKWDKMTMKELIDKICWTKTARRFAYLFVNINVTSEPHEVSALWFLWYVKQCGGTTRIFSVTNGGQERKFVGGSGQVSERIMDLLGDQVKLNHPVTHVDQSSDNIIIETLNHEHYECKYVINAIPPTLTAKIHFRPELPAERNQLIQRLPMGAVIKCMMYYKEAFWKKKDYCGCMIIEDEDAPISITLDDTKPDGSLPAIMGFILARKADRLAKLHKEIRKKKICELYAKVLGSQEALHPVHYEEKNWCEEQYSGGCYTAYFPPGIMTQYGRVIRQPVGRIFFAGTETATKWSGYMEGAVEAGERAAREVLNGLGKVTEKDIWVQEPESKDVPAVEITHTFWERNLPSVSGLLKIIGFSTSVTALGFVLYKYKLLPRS
Method: [The source words this procedure for another target and says it was used here with some conditions changed.] (§1) The compounds according to the present technology were evaluated in terms of activity on recombinant human VAP-1 (R&D systems) by measuring the level of hydrogen peroxide in horseradish peroxidase (HRP)-coupled reaction using Amplex Red Hydrogen Peroxide Assay Kit (Molecular Probes, Invitrogen, USA). The experiment was carried out at room temperature using benzylamine as a substrate. In the HRP-coupled reaction, hydrogen peroxide oxidation of 10-acetyl-3,7-dihydroxyphenoxazine (Amplex Red reagent) produces resorufin, which is a highly fluorescent compound. Briefly, the test compound was dissolved in dimethyl sulfoxide (DMSO) at a concentration of 20 mM. The dose-response assessment was made by 1:3 serial dilution in DMSO, thereby creating an 8-point curve. The concentration of the upper part was controlled according to the efficacy of the compounds, followed by dilution with a reaction buffer solution to obtain a final DMSO concentration of less than 1%. To each well of a 96 black well plate, human VAP-1 purified in 50 mM sodium phosphate buffer solution (pH7.4) was added. The test compounds dissolved in DMSO were incubated with the human VAP-1 enzymes at 37° C. for 30 minutes. After 30-minute incubation, each well was added with a reaction mixture containing 200 uM Amplex Red reagent prepared from 50 mM sodium phosphate buffer solution (pH 7.4), 1 mM benzylamine, and 1 U/mL HRP. Fluorescence intensity was measured at several time points during 1-2 hours using a microplate reader (Flexstation3, Molecular Devices) under the wavelength condition exciting at 544 nm and reading the emission at 590 nm. The inhibitory effect of the compounds was measured as a decrease (%) in the signal rate as compared to the control group without any inhibitor (only diluted DMSO). Data was fixed to a logistic model with four variables and IC50 value was calculated using GraphPad Prism program.

[2] = target: T2, recombinant human MAO-B (monoamine oxidase-B) (Homo sapiens, UniProt P27338); experiment: Amplex Red HRP-coupled amine oxidase activity evaluation, recombinant human MAO-B; settings: substrate 1 mM benzylamine; read-out: Inhibitory Activity (IC50, nM) MAO-B
T2 construct: purchased Sigma-Aldrich
T2 sequence (P27338 1-520): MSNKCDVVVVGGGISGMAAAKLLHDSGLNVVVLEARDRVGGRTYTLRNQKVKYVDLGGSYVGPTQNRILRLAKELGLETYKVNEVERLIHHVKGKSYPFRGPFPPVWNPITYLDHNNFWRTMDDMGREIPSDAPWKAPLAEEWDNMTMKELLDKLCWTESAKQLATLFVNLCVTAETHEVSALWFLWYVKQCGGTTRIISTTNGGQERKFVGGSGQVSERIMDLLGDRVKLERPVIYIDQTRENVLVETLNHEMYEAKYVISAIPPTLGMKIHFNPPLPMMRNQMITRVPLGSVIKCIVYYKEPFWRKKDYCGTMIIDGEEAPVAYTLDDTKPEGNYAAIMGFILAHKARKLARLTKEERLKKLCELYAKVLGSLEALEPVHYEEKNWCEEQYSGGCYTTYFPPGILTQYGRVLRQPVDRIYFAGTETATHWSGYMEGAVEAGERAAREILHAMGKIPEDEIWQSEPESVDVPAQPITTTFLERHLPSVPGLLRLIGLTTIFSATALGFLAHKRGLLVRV
Method: [The source words this procedure for another target and says it was used here with some conditions changed.] as §1

[3] = target: T3, recombinant human DAO (diamine oxidase) (Homo sapiens, UniProt P19801); experiment: Amplex Red HRP-coupled amine oxidase activity evaluation, recombinant human DAO
T3 construct: purchased R&D systems
T3 sequence (P19801 20-751): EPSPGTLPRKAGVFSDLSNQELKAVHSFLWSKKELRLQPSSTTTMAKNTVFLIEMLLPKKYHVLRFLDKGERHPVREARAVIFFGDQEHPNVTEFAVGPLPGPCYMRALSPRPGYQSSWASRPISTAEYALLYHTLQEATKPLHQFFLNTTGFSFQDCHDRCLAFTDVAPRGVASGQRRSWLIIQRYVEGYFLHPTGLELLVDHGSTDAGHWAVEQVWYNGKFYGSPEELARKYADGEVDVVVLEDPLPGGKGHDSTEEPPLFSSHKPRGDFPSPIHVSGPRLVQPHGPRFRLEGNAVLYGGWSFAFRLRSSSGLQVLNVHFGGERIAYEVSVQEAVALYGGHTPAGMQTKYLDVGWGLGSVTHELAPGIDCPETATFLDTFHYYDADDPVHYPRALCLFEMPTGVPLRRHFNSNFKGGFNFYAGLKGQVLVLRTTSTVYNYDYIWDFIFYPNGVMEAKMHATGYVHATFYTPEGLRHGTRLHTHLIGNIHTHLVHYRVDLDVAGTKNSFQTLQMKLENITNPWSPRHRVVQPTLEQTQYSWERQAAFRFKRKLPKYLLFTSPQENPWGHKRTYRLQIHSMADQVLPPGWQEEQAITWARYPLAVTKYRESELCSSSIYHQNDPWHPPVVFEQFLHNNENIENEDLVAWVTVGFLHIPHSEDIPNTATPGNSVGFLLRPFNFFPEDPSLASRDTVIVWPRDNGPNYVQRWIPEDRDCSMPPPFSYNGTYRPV
Method: [The source words this procedure for another target and says it was used here with some conditions changed.] as §1

[4] = target: T4, recombinant human VAP-1 (Homo sapiens, UniProt Q16853); experiment: Amplex Red HRP-coupled amine oxidase activity evaluation, recombinant human VAP-1; settings: substrate 1 mM benzylamine; 30 min preincubation at 37° C.; read-out: Inhibitory Activity (IC50, nM) human VAP-1
T4 construct: purchased R&D systems
T4 sequence (Q16853 1-763): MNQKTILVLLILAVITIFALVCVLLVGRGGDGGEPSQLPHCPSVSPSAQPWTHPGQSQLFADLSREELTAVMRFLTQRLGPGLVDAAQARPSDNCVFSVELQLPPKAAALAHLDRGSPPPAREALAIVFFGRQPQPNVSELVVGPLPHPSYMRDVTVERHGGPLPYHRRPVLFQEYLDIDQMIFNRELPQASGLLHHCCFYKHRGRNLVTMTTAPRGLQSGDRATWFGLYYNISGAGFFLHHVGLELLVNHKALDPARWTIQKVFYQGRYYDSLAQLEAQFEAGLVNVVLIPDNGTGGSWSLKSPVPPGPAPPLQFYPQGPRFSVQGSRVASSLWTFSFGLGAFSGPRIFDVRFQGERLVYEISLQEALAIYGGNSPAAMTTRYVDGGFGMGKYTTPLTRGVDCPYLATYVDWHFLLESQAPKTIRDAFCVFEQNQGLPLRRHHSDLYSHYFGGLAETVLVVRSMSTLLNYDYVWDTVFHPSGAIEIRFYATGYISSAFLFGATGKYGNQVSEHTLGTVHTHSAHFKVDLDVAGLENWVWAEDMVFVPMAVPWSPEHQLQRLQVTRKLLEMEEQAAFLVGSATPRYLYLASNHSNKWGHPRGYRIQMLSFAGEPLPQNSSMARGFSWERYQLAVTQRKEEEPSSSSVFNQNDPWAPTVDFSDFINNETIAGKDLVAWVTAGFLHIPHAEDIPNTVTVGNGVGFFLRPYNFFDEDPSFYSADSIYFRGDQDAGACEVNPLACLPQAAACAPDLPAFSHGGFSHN
Method: as §1

[5] = substrate 1 mM putrescine, read-out: Inhibitory Activity (IC50, nM) DAO

| IC50 [1] [nM] | IC50 [2] [nM] | IC50 [3, 5] [nM] | IC50 [4] [nM] | IC50 [3] [nM] | Structure (SMILES) |
| --- | --- | --- | --- | --- | --- |
| > 100000 | > 100000 | > 100000 | > 100 | – | CCn1cc(-c2ccc(C)c(-n3nnn(CC(CN)=C(F)F)c3=O)n2)ccc1=O [Example 24, 5-[6-[4-[2-(aminomethyl)-3,3-difluoro-allyl]-5-oxo-tetrazol-1-yl]-5-methyl-2-pyridyl]-1-ethyl-pyridin-2-one trifluoroacetate] |
| > 100000 | > 100000 | – | 13 | 1110 | Cc1ccc(-c2cc(C)c3c(c2)CCC(=O)N3)nc1-n1nnn(CC(CN)=C(F)F)c1=O [Example 25, 6-[6-[4-[2-(aminomethyl)-3,3-difluoro-allyl]-5-oxo-tetrazol-1-yl]-5-methyl-2-pyridyl]-8-methyl-3,4-dihydro-1H-quinolin-2-one trifluoroacetate] |
| > 100000 | > 100000 | – | 19 | 4370 | Cc1ccc(-c2ccc3c(c2)CCC(=O)N3C)nc1-n1nnn(CC(CN)=C(F)F)c1=O [Example 26, 6-[6-[4-[2-(aminomethyl)-3,3-difluoro-allyl]-5-oxo-tetrazol-1-yl]-5-methyl-2-pyridyl]-1-methyl-3,4-dihydroquinolin-2-one trifluoroacetate] |
| 82100 | 9000 | 127 | 0.6 | – | Cc1cc(-c2cccc(Cn3nnn(CC(CN)=C(F)F)c3=O)c2)cc2c1NC(=O)CC2 [Example 31, 6-[3-[[4-[2-(aminomethyl)-3,3-difluoro-allyl]-5-oxo-tetrazol-1-yl]methyl]phenyl]-8-methyl-3,4-dihydro-1H-quinolin-2-one trifluoroacetate] |
| 81400 | 3990 | 122 | 0.3 | – | CN1C(=O)CCc2cc(-c3cccc(Cn4nnn(CC(CN)=C(F)F)c4=O)c3)ccc21 [Example 33, 6-[3-[[4-[2-(aminomethyl)-3,3-difluoro-allyl]-5-oxo-tetrazol-1-yl]methyl]phenyl]-1-methyl-3,4-dihydroquinolin-2-one trifluoroacetate] |
| > 100000 | 1430 | 32200 | 0.4 | – | CS(=O)(=O)c1ccc(-c2csc(-n3nnn(CC(CN)=C(F)F)c3=O)c2)cc1 [Example 35, 1-[2-(aminomethyl)-3,3-difluoro-allyl]-4-[4-(4-methylsulfonylphenyl)-2-thienyl]tetrazol-5-one trifluoroacetate] |

The next lines start with the compound.

| Structure (SMILES) | IC50 [1] [nM] | IC50 [2] [nM] | IC50 [3, 5] [nM] | IC50 [4] [nM] | IC50 [3] [nM] |
| --- | --- | --- | --- | --- | --- |
| CS(=O)(=O)c1ccc(-c2cccc(Cn3nnn(CC(CN)=C(F)F)c3=O)c2)cc1 [Example 27, 1-[2-(aminomethyl)-3,3-difluoro-allyl]-4-[[3-(4-methylsulfonylphenyl)phenyl]methyl]tetrazol-5-one trifluoroacetate] | > 100000 | 48400 | 513 | 1 | – |
| NCC(Cn1nnn(Cc2cccc(-c3ccc(N4CCNCC4)cc3)c2)c1=O)=C(F)F [Example 28, 1-[2-(aminomethyl)-3,3-difluoro-allyl]-4-[[3-(4-piperazin-1-ylphenyl)phenyl]methyl]tetrazol-5-one di-trifluoroacetate] | 33000 | 35800 | 5160 | 1.8 | – |
| CN(C)c1ccc(-c2cccc(Cn3nnn(CC(CN)=C(F)F)c3=O)c2)cn1 [Example 29, 1-[2-(aminomethyl)-3,3-difluoro-allyl]-4-[[3-[6-(dimethylamino)-3-pyridyl]phenyl]methyl]tetrazol-5-one trifluoroacetate] | 80100 | 14300 | 159 | 0.7 | – |
| NCC(Cn1nnn(Cc2cccc(-c3ccc4c(c3)OCO4)c2)c1=O)=C(F)F [Example 30, 1-[2-(aminomethyl)-3,3-difluoro-allyl]-4-[[3-(1,3-benzodioxol-5-yl)phenyl]methyl]tetrazol-5-one trifluoroacetate] | 70900 | 206 | 1500 | 0.8 | – |
| CCn1cc(-c2cccc(Cn3nnn(CC(CN)=C(F)F)c3=O)c2)cn1 [Example 32, 1-[2-(aminomethyl)-3,3-difluoro-allyl]-4-[[3-(1-ethylpyrazol-4-yl)phenyl]methyl]tetrazol-5-one trifluoroacetate] | > 100000 | 2320 | 811 | 0.4 | – |
| CCn1cc(-c2cccc(Cn3nnn(CC(CN)=C(F)F)c3=O)c2)ccc1=O [Example 34, 5-[3-[[4-[2-(aminomethyl)-3,3-difluoro-allyl]-5-oxo-tetrazol-1-yl]methyl]phenyl]-1-ethyl-pyridin-2-one trifluoroacetate] | > 100000 | 53900 | 12500 | 0.6 | – |
